Source: patent publication US20260184663A1, “INDENE COMPOUNDS, PHARMACEUTICAL COMPOSITIONS THEREOF, AND THEIR THERAPEUTIC APPLICATIONS” (NucMito Pharmaceuticals co. Ltd., priority 2022, published 2026)

Experiments:
Format in all cases: cell-based
[1] = tested on: B16F10 (malignant melanoma); assay: Antiproliferative activity (CCK-8 cell viability), B16F10; conditions: Mus musculus, 72 h, read-out: Antiproliferative activity in cancerous cells, B16F10 (inhibition of cell growth); for inhibition at 3.3 µM: B16-F10, Compound concentration: 3.3 μM; for inhibition at 10 µM: B16-F10, Compound concentration: 10 μM; for inhibition at 30 µM: B16-F10, Compound concentration: 30 μM
Procedure, shortened: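 B16F10 melanoma cells grown in DMEM with 10% FBS were plated in 96-well plates at 2,000-5,000 cells/well. After attachment they were exposed to compound in medium for 72 h at 37° C. CCK-8 solution (10 μL) was then added, and after 4 h at 37° C absorbance was read at 450 nm.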

[2] = tested on: alpha-smooth muscle actin (α-SMA); assay: Inhibition of TGF-β induced expression of alpha-smooth muscle actin (α-SMA) in CFSC cells (western blot); conditions: compound at 10 μM, TGF-β (10 ng/mL), 24 hours, band intensity vs TGF-β only
Procedure, shortened: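 Values are percent reduction of α-SMA band intensity relative to cells given TGF-β alone, quantified by Western blot densitometry with β-actin probed. Compound was applied at 10 μM alongside 10 ng/mL TGF-β to serum-free CFSC cultures for 24 h at 37 °C.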

SW480 (colon cancer) = assay: Antiproliferative activity (CCK-8 cell viability), SW480; conditions: Homo sapiens, 72 h, read-out: Antiproliferative activity in cancerous cells, SW480 (inhibition of cell growth); for inhibition at 3.3 µM: Compound concentration: 3.3 μM; for inhibition at 10 µM: Compound concentration: 10 μM; for inhibition at 30 µM: Compound concentration: 30 μM
Procedure, shortened: (§1)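 Cells grown in DMEM (HepG2, SW480), MEM (HeLa) or F-12K (A549), each with 10% FBS, then exposed to compound at 3.3, 10 or 30 μM for 72 h at 37 °C. CCK-8 absorbance at 450 nm; viability expressed as percent of DMSO-treated cells, graded as growth inhibition bands.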

[3] = tested on: A431 (epidermoid carcinoma); assay: Antiproliferative activity (CCK-8 cell viability), A431; conditions: Homo sapiens, 72 h, read-out: Antiproliferative activity in cancerous cells, A431 (inhibition of cell growth); for inhibition at 3.3 µM: A-431, Compound concentration: 3.3 μM; for inhibition at 10 µM: A-431, Compound concentration: 10 μM; for inhibition at 30 µM: A-431, Compound concentration: 30 μM
Procedure, shortened: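 A431 epidermoid carcinoma cells grown in DMEM with 10% FBS were plated at 2,000-5,000 cells/well in 96-well plates. After attachment they were exposed to compound at 3.3 μM, 10 μM, or 30 μM for 72 h at 37° C. Viability was then assessed by CCK-8 against DMSO vehicle-treated wells.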

HepG2 (liver cancer) = assay: Antiproliferative activity (CCK-8 cell viability), HepG2; conditions: Homo sapiens, 72 h, read-out: Antiproliferative activity in cancerous cells, HepG2 (inhibition of cell growth); for inhibition at 3.3 µM: Compound concentration: 3.3 μM; for inhibition at 10 µM: Compound concentration: 10 μM; for inhibition at 30 µM: Compound concentration: 30 μM
Procedure, shortened: as §1

HeLa (cervical cancer) = assay: Antiproliferative activity (CCK-8 cell viability), HeLa; conditions: Homo sapiens, 72 h, read-out: Antiproliferative activity in cancerous cells, HELA (inhibition of cell growth); for inhibition at 3.3 µM: Compound concentration: 3.3 μM; for inhibition at 10 µM: Compound concentration: 10 μM; for inhibition at 30 µM: Compound concentration: 30 μM
Procedure, shortened: as §1

[4] = tested on: MDA-MB-231 (breast cancer); assay: Antiproliferative activity (CCK-8 cell viability), MDA-MB-231; conditions: Homo sapiens, 72 h, read-out: Antiproliferative activity in cancerous cells, MDA-MB-231 (inhibition of cell growth); for inhibition at 3.3 µM: Compound concentration: 3.3 μM; for inhibition at 10 µM: Compound concentration: 10 μM; for inhibition at 30 µM: Compound concentration: 30 μM
Procedure, shortened: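 MDA-MB-231 breast cancer cells, grown in DMEM with 10% FBS, were plated in 96-well plates at 2,000-5,000 cells/well. Once attached, they were exposed to compound and incubated at 37° C. for 72 h. Viability was then measured with CCK-8 (10 μL per well, 4 h at 37° C.) by absorbance at 450 nm, relative to DMSO vehicle wells.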

[5] = tested on: A549 (lung adenocarcinoma); assay: Antiproliferative activity (CCK-8 cell viability), A549; conditions: Homo sapiens, 72 h, read-out: Antiproliferative activity in cancerous cells, A549 (inhibition of cell growth); for inhibition at 3.3 µM: Compound concentration: 3.3 μM; for inhibition at 10 µM: Compound concentration: 10 μM; for inhibition at 30 µM: Compound concentration: 30 μM
Procedure, shortened: as §1

SMILES | inhibition at 3.3 µM [1] | inhibition at 10 µM [1] | inhibition at 30 µM [1] | inhibition at 10 µM [2] | inhibition at 3.3 µM (SW480 (colon cancer)) | inhibition at 10 µM (SW480 (colon cancer)) | inhibition at 30 µM (SW480 (colon cancer)) | inhibition at 3.3 µM [3] | inhibition at 10 µM [3] | inhibition at 30 µM [3] | inhibition at 3.3 µM (HepG2 (liver cancer)) | inhibition at 10 µM (HepG2 (liver cancer)) | inhibition at 30 µM (HepG2 (liver cancer)) | inhibition at 3.3 µM (HeLa (cervical cancer)) | inhibition at 10 µM (HeLa (cervical cancer)) | inhibition at 30 µM (HeLa (cervical cancer)) | inhibition at 3.3 µM [4] | inhibition at 10 µM [4] | inhibition at 30 µM [4] | inhibition at 3.3 µM [5] | other results
CC1=C(CC(=O)O)c2cc(F)cc(F)c2/C1=C/c1ccc(COc2ccccc2)cc1 [E2, (E)-2-(5,7-Difluoro-2-methyl-1-(4-(phenoxymethyl)benzylidene)-1H-inden-3-yl)-acetic acid] | ≥ 50% | ≥ 50% | ≥ 50% | 50 to 80% | ≥ 50% | ≥ 50% | ≥ 50% | 30 to 50% | ≥ 50% | ≥ 50% | 30 to 50% | ≥ 50% | ≥ 50% | ≥ 50% | ≥ 50% | ≥ 50% | < 30% | ≥ 50% | ≥ 50% | < 30% | inhibition at 10 µM [5]: 30 to 50%; inhibition at 30 µM [5]: ≥ 50%
CC1=C(CC(=O)O)c2ccc(F)c(F)c2/C1=C/c1ccc(Oc2ccc(F)cc2)cc1 [E3, (E)-2-(6,7-Difluoro-1-(4-(4-fluorophenoxy)benzylidene)-2-methyl-1H-inden-3-yl)acetic acid] | 30 to 50% | ≥ 50% | ≥ 50% | > 80% | 30 to 50% | ≥ 50% | ≥ 50% | ≥ 50% | ≥ 50% | ≥ 50% | ≥ 50% | ≥ 50% | ≥ 50% | ≥ 50% | ≥ 50% | ≥ 50% | ≥ 50% | ≥ 50% | ≥ 50% | 30 to 50% | inhibition at 10 µM [5]: ≥ 50%; inhibition at 30 µM [5]: ≥ 50%
CC1=C(CC(=O)O)c2ccc(F)c(F)c2/C1=C/c1cccc(Oc2ccccc2)c1 [E4, (E)-2-(6,7-Difluoro-2-methyl-1-(3-phenoxybenzylidene)-1H-inden-3-yl)acetic acid] | < 30% | ≥ 50% | ≥ 50% | > 80% | < 30% | < 30% | ≥ 50% | < 30% | < 30% | ≥ 50% | < 30% | 30 to 50% | ≥ 50% | 30 to 50% | ≥ 50% | ≥ 50% | < 30% | 30 to 50% | ≥ 50% | < 30% | inhibition at 10 µM [5]: ≥ 50%; inhibition at 30 µM [5]: ≥ 50%
CC1=C(CC(=O)O)c2cc(F)ccc2/C1=C/c1ccc(F)cc1OCc1ccccc1 [E5, (E)-2-(1-(2-(Benzyloxy)-4-fluorobenzylidene)-5-fluoro-2-methyl-1H-inden-3-yl)-acetic acid] | ≥ 50% | ≥ 50% | ≥ 50% | > 80% | 30 to 50% | 30 to 50% | ≥ 50% | < 30% | 30 to 50% | ≥ 50% | 30 to 50% | ≥ 50% | ≥ 50% | < 30% | ≥ 50% | ≥ 50% | 30 to 50% | 30 to 50% | ≥ 50% | < 30% | inhibition at 10 µM [5]: ≥ 50%; inhibition at 30 µM [5]: ≥ 50%
